Data as given in patent US20200367818A1, “DEVICES, SYSTEMS, AND METHODS FOR TUMOR VISUALIZATION AND REMOVAL” (UNIVERSITY HEALTH NETWORK, priority 2018, published 2020).
Structures can show the parent of a compound that is named as a salt.

Tested on: invasive breast carcinoma lumpectomy/mastectomy specimens and lymph nodes
Test: 5-ALA breast study: PpIX fluorescence imaging of breast tumor specimens and lymph nodes with handheld device (405 nm excitation)
Type: in vivo, human
Conditions: multispectral or multiband fluorescence imaging with 5-ALA
Experimental: In one example, oral 5-ALA was dissolved in water and administered by a study nurse between 2-4 h before surgery in patients at dosages of 15 or 30 mg/kg 5-ALA.
By viewing lymph nodes prior to removal from the subject's body, it is possible to observe, using the device 100, red fluorescence emissions from cells containing induced porphyrins that are within the lymph node.
When combined with 5-ALA red FL, the differing emission spectra of normal tissue AF and PpIX are easily distinguishable visually (see FIGS. 15 and 16). […] The 405 nm excitation LEDs and the dual band emission filter (500-545 nm and 600-660 nm) are suitable for breast tumor imaging using 5-ALA because they provide a composite image comprised of red PpIX and green connective tissue FL, and broad green-to-red FL of adipose tissue (appears pink).

SMILES: NCC(=O)CCC(=O)O [5-ALA, Aminolevulinic acid hydrochloride]
- depth below the imaged tissue surface at which otherwise clinically occult disease is detected: ≤ 2.6 mm
